Values quoted from earlier work as cited in PMC12308805, “Ultrahigh-Throughput Virtual Screening Strategies against PPI Targets: A Case Study of STAT Inhibitors” (Journal of Chemical Information and Modeling, 2025).
Like-named read-outs stand apart in the source and are kept apart here. Square brackets hold non-standard residues; d marks the D form. Peptide text beside a SMILES is read from it. * marks the point of attachment. pY = N[C@@H](Cc1ccc(OP(=O)(O)O)cc1)C(=O)O; NH(1R-phenylethyl) = C[C@@H](N*)c1ccccc1; Cbz = O=C(OCc1ccccc1)*

Tested on: STAT3
Details: cited from earlier work; for Type: retrospective screening set for STAT3 SH2 domain (PDB 6QHD), ref DUD-E
[1] = sheet 6QHD_actives_decoys, decoys are presumed inactives, not tested
[2] = sheet 6QHD_actives_decoys, decoys generated with DUD-E and presumed inactive, not tested
[3] = sheet 6QHD_actives_decoys, known STAT3 actives of the retrospective screening set, ref ChEMBL / literature

CCOC(=O)[C@@H]1[C@@H](C(=O)OCC)[C@H]2/C(=N\NS(=O)(=O)c3ccc(C)cc3)[C@H]3[C@@H](C(=O)OCC)[C@@H](C(=O)OCC)[C@@H]3/C(=N\NS(=O)(=O)c3ccc(C)cc3)[C@@H]12 [Decoy764]
Type [1]: Inactive (Decoy)

CC(=C\C(=O)O)/C=C(\C)C[C@@H](C)CCCC[C@H](O)[C@@H](CO)C(=O)OC[C@H]1O[C@@H](O)[C@@H](O)[C@@H](O)[C@H]1O [Decoy876]
Type [1]: Inactive (Decoy)

COc1ccccc1OCCNC[C@H](O)CN(CCOc1ccccc1OC)C[C@H](O)COc1cccc2[nH]c3ccccc3c12 [Decoy708]
Type [2]: Inactive (Decoy)

CC(=O)OC[C@H](CCC(N)=O)NC(=O)[C@@H]1[C@@H]2C[C@@H]2CN1C(=O)[C@H](CC(C)C)NC(=O)/C=C/c1ccc(OP(=O)(O)O)cc1 [CHEMBL583726]
Type (known STAT3 active) [3]: Active

CCOC(=O)C(Sc1nc(N)c(NC(=O)c2ccc(Br)o2)c(=O)[nH]1)C(=O)OCC [Decoy673]
Type [2]: Inactive (Decoy)

CC(=C\C(=O)O)/C=C(\C)C[C@@H](C)CCCC[C@@H](O)[C@@H](CO)C(=O)OC[C@H]1O[C@@H](O)[C@@H](O)[C@@H](O)[C@H]1O [Decoy875]
Type [1]: Inactive (Decoy)

CCOC(=O)c1ccc(NC(=O)CSc2nc3cc(C(=O)OC)ccc3c(=O)n2CCN2CCOCC2)cc1 [Decoy371]
Type [2]: Inactive (Decoy)

CCOC(=O)c1[nH]c(C)c(C(=O)C2=C(O)C(=O)N(CCCN(C)C)[C@@H]2c2cc(OC)c(OC)c(OC)c2)c1C [Decoy593]
Type [2]: Inactive (Decoy)

C=C1[C@@H](O)[C@@H]2O[C@]3(CC[C@@H]2O[C@@H]1[C@@H](O)C[C@H](C)[C@H]1O[C@@]2(CCCCO2)CC[C@H]1C)CC[C@H](/C=C/[C@@H](C)[C@H]1CC(C)=C[C@@]2(O[C@@H](C[C@@](C)(O)C(=O)O)CC[C@H]2O)O1)O3 [Decoy484]
Type (sheet 6QHD_actives_decoys, […]): Inactive (Decoy)

CCOC(=O)c1c(NC(=O)CCSc2nnc(N/N=C/c3ccc(C)cc3)n2N)sc2c1CCCC2 [Decoy449]
Type [2]: Inactive (Decoy)

CCOC(=O)c1ccc(/N=C2\S[C@@H](CC(=O)Nc3ccc(C(=O)OCC)cc3)C(=O)N2CCc2ccc(Cl)cc2)cc1 [Decoy552]
Type [2]: Inactive (Decoy)

C[C@@]1(c2cc3ccccc3o2)NC(=O)N(CC(=O)Nc2cccc(S(=O)(=O)N3CCCC3)c2)C1=O [Decoy779]
Type [1]: Inactive (Decoy)

O=C(CNS(=O)(=O)c1ccc(NC(=S)Nc2ccc([N+](=O)[O-])cc2)cc1)c1ccccc1 [Decoy913]
Type [1]: Inactive (Decoy)

O=C(O)c1[nH]nc(-c2ccc(O[C@H]3O[C@@H](CO)[C@@H](O)[C@@H](O)[C@H]3O)cc2O)c1-c1ccc2c(c1)OCCO2 [Decoy397]
Type [2]: Inactive (Decoy)

CCOc1ccc([C@@H]2c3c(-c4cc(Cl)c(C)cc4O)n[nH]c3C(=O)N2CCCOC)cc1OCC [Decoy460]
Type [2]: Inactive (Decoy)

Cc1ccc(S(=O)(=O)NCCc2nnc(NC(=O)CSCc3ccc([N+](=O)[O-])cc3)s2)cc1 [Decoy939]
Type [1]: Inactive (Decoy)

CC(C)C[C@H](NC(=O)[C@H](Cc1ccc(OP(=O)(O)O)cc1)NC(=O)OCc1ccccc1)C(=O)N1CCC[C@H]1C(=O)N[C@@H](CCC(N)=O)C(=O)N[C@H](C(N)=O)[C@@H](C)O [CHEMBL435121] (Cbz-[pY]LPQT-NH2)
Type (known STAT3 active): Active

C[C@@H]1O[C@@H](O[C@H]2[C@H](O[C@@H]3CC[C@@H]4C(=CC[C@@H]5[C@@]4(C)C(=O)C[C@]4(C)[C@H]([C@@]6(C)O[C@@H](C(C)(C)O)CC6=O)[C@H](O)C[C@@]54C)C3(C)C)O[C@H](CO)[C@@H](O)[C@@H]2O)[C@H](O)[C@H](O)[C@H]1O [Decoy471]
Type [2]: Inactive (Decoy)

CC[C@H](C)[C@H](OC(=O)[C@@H](OC(=O)[C@H](O)[C@@H](C)CC)[C@@H](C)CC)C(=O)OC[C@H](O)[C@H](O)[C@H](O)[C@H](O)CO [Decoy863]
Type [1]: Inactive (Decoy)

Cc1cc(NS(=O)(=O)c2ccc(NC(=O)CCCC(=O)Nc3ccc(S(=O)(=O)Nc4cc(C)on4)cc3)cc2)no1 [Decoy746]
Type [1]: Inactive (Decoy)

C=CCOC(=O)c1sc(NC(=O)[C@@H](CC)n2c(N)nnc2SCc2ccccc2Cl)nc1C [Decoy920]
Type [1]: Inactive (Decoy)

O=C(O)CCNS(=O)(=O)c1ccc(NCCc2ccc(C(F)(F)F)cc2)c([N+](=O)[O-])c1 [Decoy891]
Type [1]: Inactive (Decoy)

Cc1ccc(N2C(=O)NC(=O)/C(=C\c3cc(C)n(-c4cc(C(=O)O)cc(C(=O)O)c4)c3C)C2=O)cc1 [Decoy670]
Type (sheet 6QHD_actives_decoys, […]): Inactive (Decoy)

COc1cc([C@H]2OC[C@H]3[C@@H]2CO[C@H]3c2ccc(O[C@@H]3O[C@H](CO[C@@H]4O[C@@H](C)[C@H](O)[C@@H](O)[C@H]4O)[C@@H](O)[C@H](O)[C@H]3O)c(OC)c2)ccc1O [Decoy911]
Type [1]: Inactive (Decoy)

COc1cc(NS(=O)(=O)c2ccc(NC(=O)CCCCC(=O)Nc3ccc(S(=O)(=O)/N=c4/cc(OC)nc(OC)[nH]4)cc3)cc2)nc(OC)n1 [Decoy429]
Type (sheet 6QHD_actives_decoys, […]): Inactive (Decoy)

CC(C)C[C@H](NC(=O)/C=C/c1ccc(OP(=O)(O)O)cc1)C(=O)N1CCC[C@H]1C(=O)N[C@@H](CCC(N)=O)COC(N)=O [CHEMBL573643]
Type (known STAT3 active) [3]: Active

CCN(CC)S(=O)(=O)c1cc(NC(=O)CSc2nnc(C(F)(F)F)n2N)ccc1C [Decoy478]
Type [2]: Inactive (Decoy)

Cc1ccc(S(=O)(=O)Nc2ccccc2/C=N/CC(O)C/N=C/c2ccccc2NS(=O)(=O)c2ccc(C)cc2)cc1 [Decoy922]
Type [1]: Inactive (Decoy)

CC(C)C[C@H](NC(=O)/C=C/c1ccc(OP(=O)(O)O)cc1)C(=O)N1CCC[C@H]1C(=O)N[C@H](C)CCC(N)=O [CHEMBL578635]
Type (known STAT3 active): Active

CC(C)CN(C(=O)CN(C)C(=O)Cc1ccccc1Cl)c1c(N)n(CC(C)C)c(=O)[nH]c1=O [Decoy755]
Type [1]: Inactive (Decoy)

CCCSc1nnc(/N=C(\O)CSc2nnc(N/N=C/c3c(C)nn(C(C)C)c3C)n2N)s1 [Decoy476]
Type [2]: Inactive (Decoy)

COCCOC(=O)C1=C(C)NC(SCC(=O)Nc2ccc([N+](=O)[O-])cc2)=C(C#N)[C@@H]1c1ccco1 [Decoy833]
Type [1]: Inactive (Decoy)

CCOC(=O)c1c(NC(=O)[C@@H](C)Sc2nnc(CNC(=O)c3cc(OC)cc(OC)c3)n2C)sc2c1CCC2 [Decoy533]
Type [2]: Inactive (Decoy)

C=CCn1c(CNc2ccc(C)cc2)nnc1SCCC(=O)Nc1sc(C(=O)OCC)c(C)c1C#N [Decoy508]
Type [2]: Inactive (Decoy)

COc1cc([C@H]2c3cc(OC)c(O[C@H]4O[C@@H](CO)[C@@H](O)[C@@H](O)[C@H]4O)c(OC)c3C[C@H](CO)[C@@H]2CO)cc(OC)c1O [Decoy824]
Type [1]: Inactive (Decoy)

CCOC(=O)C1=C(CN2CCN(CC(=O)Nc3cccc(F)c3)CC2)NC(=O)N[C@@H]1CC [Decoy866]
Type [1]: Inactive (Decoy)

Nc1cnn([C@@H]2O[C@@H](COC(=O)c3ccccc3)[C@H](OC(=O)c3ccccc3)[C@@H]2OC(=O)c2ccccc2)c(=O)n1 [Decoy672]
Type [2]: Inactive (Decoy)

CC(=O)O[C@H]1[C@@H](O)[C@@H](O[C@@H](/C=N/c2ccc3c(c2)C(=O)NC3=O)[C@@H](CO)O[C@H](O)/C=N/c2ccc3c(c2)C(=O)NC3=O)O[C@@H](CO)[C@H]1O [Decoy463]
Type [2]: Inactive (Decoy)

O=C(Nc1ccc(S(=O)(=O)Nc2ncccn2)cc1)c1cccc(C(=O)Nc2ccc(S(=O)(=O)Nc3ncccn3)cc2)n1 [Decoy668]
Type [2]: Inactive (Decoy)

CCOC(=O)c1ccc(NC(=O)CSc2ccc3nnc(CCNS(=O)(=O)c4ccc(OC)cc4)n3n2)cc1 [Decoy704]
Type [2]: Inactive (Decoy)

CCCCOc1ccc([C@H]2C(C(=O)c3nc4c(C)cccn4c3C)=C(O)C(=O)N2CCOC)cc1OC [Decoy346]
Type [2]: Inactive (Decoy)

CCOC(=O)c1ccc(NC(=O)C/C(C)=N/NC(=O)C(=O)Nc2cccc(Cl)c2C)cc1 [Decoy358]
Type [2]: Inactive (Decoy)

C=CCn1c(CCCN2C(=O)c3cccc4cccc(c34)C2=O)nnc1SCC(=O)Nc1ccc(S(N)(=O)=O)cc1 [Decoy601]
Type [2]: Inactive (Decoy)

Cc1ccc(NC(=O)CN(C)C(=O)[C@H](C)OC(=O)CNC(=O)c2ccc(Cl)c([N+](=O)[O-])c2)cc1 [Decoy457]
Type [2]: Inactive (Decoy)

CCNC(=O)COc1ccc(NC(=O)c2cc(S(=O)(=O)NCc3ccco3)ccc2C)cc1 [Decoy477]
Type [2]: Inactive (Decoy)

COc1cc(Cc2ccc(NC(=O)CSc3nc(N)cc(=O)[nH]3)c(OC)c2)ccc1NC(=O)CSc1nc(N)cc(=O)[nH]1 [Decoy750]
Type [1]: Inactive (Decoy)

C[C@H](OC(=O)[C@@](O)(Cc1ccc(O)cc1)[C@H](C)O)[C@@](O)(Cc1ccc(O)cc1)C(=O)OCc1ccc(O[C@H]2O[C@@H](CO)[C@@H](O)[C@@H](O)[C@H]2O)cc1 [Decoy621]
Type [2]: Inactive (Decoy)

Cc1ccc(S(=O)(=O)NNc2ncnc(NNC(=O)c3ccccc3)c2[N+](=O)[O-])cc1 [Decoy575]
Type [2]: Inactive (Decoy)

COC(=O)Cc1c(C(=O)OC)sc(NC(=O)CSc2nc(C(C)(C)C)n[nH]2)c1C(=O)OC [Decoy810]
Type [1]: Inactive (Decoy)

CO[C@@H]1[C@H](O)[C@H](OC[C@H]2O[C@@H](O[C@@H]3CC[C@]4(C)[C@H](CC[C@@H]5[C@@H]4CC[C@@]4(C)[C@@H](C6=CC(=O)OC6)CC[C@]54O)C3)[C@@H](O)[C@@H](O)[C@H]2O)O[C@@H](C)[C@@H]1O [Decoy926]
Type [1]: Inactive (Decoy)

CC(=O)N[C@@H](Cc1ccc(OP(=O)(O)O)cc1)C(=O)N[C@@H](CC(C)C)C(=O)N1CCC[C@H]1C(=O)N[C@@H](CCC(N)=O)C(=O)N[C@H](C)c1ccccc1 [CHEMBL193433] (Ac-[pY]LPQ-{NH(1R-phenylethyl)})
Type (known STAT3 active) [3]: Active

CCOC(=O)c1ccc(/N=C2\S[C@H](CC(=O)Nc3ccc(C(=O)OCC)cc3)C(=O)N2CCc2ccc(Cl)cc2)cc1 [Decoy553]
Type [2]: Inactive (Decoy)

CSc1ccc(S(=O)(=O)NCC(=O)OCC(=O)Nc2cccc3nsnc23)cc1[N+](=O)[O-] [Decoy445]
Type [2]: Inactive (Decoy)
